# Reference: article PMC6411960, “Discovery of Novel Androgen Receptor Ligands by Structure-based Virtual Screening and Bioassays” (Genomics, Proteomics & Bioinformatics, 2019)
# Read-outs that look alike come from different tables or passages of the source.
# Experiments:
# [1] = test system: AR transcriptional activity; assay: LNCaP-ARR2PB-eGFP transcriptional activity assay, antagonist mode (with DHT); format: cell-based; conditions: for effect on eGFP expression: 10 µM compound in the presence of 1 nM DHT, versus DHT control; for EC50: read-out: Antagonistic EC50
# AR-LBD = biological target: T1, AR-LBD (Homo sapiens, UniProt P10275); assay: PolarScreen AR competitor assay (fluorescence polarization); format: binding; conditions: competition with Flu-AR ligand; for EC50: gradient concentrations 0.1–100 µM, read-out: Binding EC50; for IC50: 0.1–100 µM, read-out: IC50, binding to AR-LBD
# T1 sequence (P10275 669-900 limits assumed): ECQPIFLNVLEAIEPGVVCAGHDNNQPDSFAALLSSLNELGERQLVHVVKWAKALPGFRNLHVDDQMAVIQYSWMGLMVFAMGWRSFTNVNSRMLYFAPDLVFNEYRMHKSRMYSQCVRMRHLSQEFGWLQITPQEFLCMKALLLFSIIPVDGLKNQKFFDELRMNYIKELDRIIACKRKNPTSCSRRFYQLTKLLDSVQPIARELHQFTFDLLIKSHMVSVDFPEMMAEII
# C4-2 cells = assay: MTT cell proliferation assay, C4-2; format: cell-based; conditions: for reduction of cell viability: C4-2, 30 µM, versus cells without treatment
# From the text: We further tested C4-2, an androgen-independent AR^+ PCa cell line, which is more malignant than LNCaP. […] Given inhibitory effect was only observed at higher concentrations, it remains to be addressed whether the inhibition is attributed to AR blocking or the inherent toxicities of the tested compounds. We thus tested these compounds on DU145, an AR^− PCa cell line.
# (§1) 3-(4,5-Dimethythiazol-2-yl)-2,5-diphenyl-2-H-tetrazolium bromid (MTT) colorimetric assay was utilized to evaluate cell proliferation, which can reflect the bioactivity and cytotoxicity of test compounds at cellular level. PCa cells were cultured in 1640 RPMI media containing 5% charcoal-stripped serum (CSS) at a density of 5000 cells per well for LNCaP, 1000 cells per well for C4-2, and 2000 cells per well for DU145 in 96-well plates. After incubation at 37 °C for 24 h, cells were treated with serial dilutions of indicated compounds (and 1 nM DHT for LNCaP culture) and incubated for another 3 days. Afterward, 10 μl of 5 mg/ml MTT solution was added into each well and further incubated for another 4 h. Then, 100 μl of triplex 10% SDS-0.1% HCl-PBS solutions were added to dissolve the formazan deposited on the bottom of the plates and the plates were then further retained in incubator overnight. The absorbance at 570 nm was measured with the reference wavelength at 650 nm with a spectrophotometer (Bioteck Eon, Winooski, VT).
# [2] = test system: AR transcriptional activity; assay: LNCaP-ARR2PB-eGFP transcriptional activity assay, agonist mode (without DHT); format: cell-based
# Procedure: 1 nM DHT was added for background fluorescence. In addition, cells receiving equal volume of DMSO solution with (dark gray bar) or without (light gray bar) DHT served as controls too. […] C. […] The test concentrations range from 0.001 nM to 10 µM. DHT served as the positive control. Assays were performed in triplicate. Multiple group comparisons were analyzed with 1-way ANOVA (**, P < 0.05 were considered statistically significant).
# The agonistic effects of the screened compounds were analyzed by stimulating the cell growth of LNCaP-ARR2PB-eGFP without prior addition of DHT. Cells were incubated with various concentrations of HBP1-3, HBP1-17, HBP1-38, and HBP1-51, respectively, ranging from 1 × 10^−3 nM to 1 × 10^4 nM (Figure 4C).
# A cell line of LNCaP that stably expresses eGFP under the regulation of an androgen response element was generated to investigate the agonist/antagonist activity of the selected compounds as previously described, [34]. […] For lentiviral infection, LNCaP cells were plated and proliferated to a confluence of 60% before adding 5 ml of the collected lentivirus. Medium was refreshed 16 h later and cells were incubated for another two days. GFP expression in the transfected cell was examined with a fluorescent microscope. Subsequently, the infected cells were cultured in complete medium containing 1 μg/ml puromycin. This procedure was repeated for three cycles in the next subculture process to adequately eliminate the non-transfected clones. Cells surviving the screening process were AR-regulated eGFP-expressing LNCaP cells (LNCaP-ARR2PB-eGFP) and were cultured for subsequent antagonist/agonist assay.
# LNCaP cells = assay: MTT cell proliferation assay, LNCaP; format: cell-based; conditions: for inhibition at 10 µM: Homo sapiens, LNCaP cell line, compound at 10 μM; for change in cell viability / decrease in cell viability: 30 µM, versus cells not treated; for change in cell viability: P = 0.0001; for effect on growth of LNCaP cells: various concentrations
# Procedure: as §1, with “PCa cells were cultured in 1640 RPMI media containing 5% charcoal-stripped serum (CSS) at a density of 5000 cells per well for LNCaP, 1000 cells per well for C4-2, and 2000 cells per well for DU145 in 96-well plates.” left out
# [3] = without DHT, 1 × 10^−3 nM to 1 × 10^4 nM
# [4] = LNCaP-ARR2PB-eGFP, in the presence of DHT
Structure (SMILES),effect on eGFP expression [1],EC50 (AR-LBD),reduction of cell viability (C4-2 cells),"agonistic effect on eGFP expression [2, 3]",inhibition at 10 µM (LNCaP cells),effect on growth of LNCaP cells (LNCaP cells; LNCaP),also measured
Nc1ccc2c(c1)C(=O)N(c1cccc3ccccc13)C2=O [HBP1-3],did not show obvious effect on eGFP expression,> 30 µM,12%,did not cause notable change,7.8 ± 4.4%,,change in cell viability (LNCaP cells; LNCaP): significant decrease in cell viability
"CC(O)(CS(=O)(=O)c1ccc(F)cc1)C(=O)Nc1ccc(C#N)c(C(F)(F)F)c1 (centres unmarked) [Bic, bicalutamide, reference compound]",,,,,16.5 ± 1%,reduced the growth of LNCaP cells in a dose-dependent manner,EC50 [1]: 0.69 ± 0.085 µM
COc1ccc(CC2(CCC(=O)NCCn3ccc4ccccc43)CCC(=O)N2)c2ccccc12 (centres unmarked) [HBP1-38],promoted eGFP expression,> 30 µM,~40%,did not cause notable change,18.6 ± 4.7%,,"inhibitory effect on LNCaP growth (LNCaP cells; LNCaP, 10 µM): inhibitory effect comparable to Bic; decrease in cell viability (LNCaP cells; LNCaP): ≥ 40%"
"CNC(=O)c1ccc(N2C(=S)N(c3ccc(C#N)c(C(F)(F)F)c3)C(=O)C2(C)C)cc1F [Enz, enzalutamide, reference compound]",,,,,,reduced the growth of LNCaP cells in a dose-dependent manner,
Cc1cc(O)nc2ccc(S(=O)(=O)Nc3ccc(O)cc3)cc12 [HBP1-51],promoted eGFP expression,3.96 µM,,dose-dependent upregulation of GFP expression,,did not show apparent inhibition tendency,"Antagonistic EC50 [1, 4]: Agonist; IC50 (AR-LBD): 3.96 µM; maximum increase of cell viability (C4-2 cells; C4-2, all tested concentrations, versus untreated cells, not significant (P = 0.14)): below 20%"
O=C(CC1C(=O)NCCN1Cc1cccc2ccccc12)NCCn1ccc2ccccc21 (centres unmarked) [HBP1-17],did not show obvious effect on eGFP expression,> 30 µM,10%,did not cause notable change,7.8 ± 4.1%,,decrease in cell viability (LNCaP cells; LNCaP): ≥ 20%
"C[C@]12CCC(=O)C[C@@H]1CC[C@@H]1[C@@H]2CC[C@]2(C)[C@@H](O)CC[C@@H]12 [DHT, dihydrotestosterone, reference compound]",,,,,,,agonistic effect on eGFP expression [2]: upregulated eGFP expression in a dose-dependent manner
Cc1ccccc1NCC(=O)N/N=C/c1ccc(-c2ccc(Cl)c(Cl)c2)o1 [HBP1-58],significantly reduced eGFP expression,4.92 µM,,,2.2 ± 0.8%,,"EC50 [1, 4]: 3.25 ± 0.43 µM; IC50 ([1]; LNCaP-ARR2PB-eGFP, with DHT, read-out: IC50, antagonistic effect on AR transcriptional activity): 3.25 ± 0.43 µM; IC50 (AR-LBD): 4.92 µM; change in cell viability (LNCaP cells; LNCaP): significant decrease in cell viability"
